Paper PMC6915887, “Inhibition of human carboxylesterases by ginsenosides: structure–activity relationships and inhibitory mechanism” (Chinese Medicine, 2019)
Read-outs that look alike come from different tables or passages of the source.

What was measured:
hCES1A = molecular target: T1, hCES1A (Homo sapiens, UniProt P23141); assay: hCES1A inhibition assay (DME hydrolysis in HLM); type: biochemical; settings: for inhibition of hCES1A-mediated DME hydrolysis (residual activity screen): HLM, ginsenoside 100 μM, result in words;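 for all read-outs here: Read-out is D-luciferin luminescence formed from DME (3 µM) after 10 min at 37 °C in pH 6.5 PBS, HLM 1 µg/mL, inhibitor preincubated 3 min, oleanic acid as positive control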
T1 construct: tissue Bioreclamation IVT lot no; X008067; host or cells: pooled human liver microsomes (50 donors)
T1 sequence (P23141 18-567): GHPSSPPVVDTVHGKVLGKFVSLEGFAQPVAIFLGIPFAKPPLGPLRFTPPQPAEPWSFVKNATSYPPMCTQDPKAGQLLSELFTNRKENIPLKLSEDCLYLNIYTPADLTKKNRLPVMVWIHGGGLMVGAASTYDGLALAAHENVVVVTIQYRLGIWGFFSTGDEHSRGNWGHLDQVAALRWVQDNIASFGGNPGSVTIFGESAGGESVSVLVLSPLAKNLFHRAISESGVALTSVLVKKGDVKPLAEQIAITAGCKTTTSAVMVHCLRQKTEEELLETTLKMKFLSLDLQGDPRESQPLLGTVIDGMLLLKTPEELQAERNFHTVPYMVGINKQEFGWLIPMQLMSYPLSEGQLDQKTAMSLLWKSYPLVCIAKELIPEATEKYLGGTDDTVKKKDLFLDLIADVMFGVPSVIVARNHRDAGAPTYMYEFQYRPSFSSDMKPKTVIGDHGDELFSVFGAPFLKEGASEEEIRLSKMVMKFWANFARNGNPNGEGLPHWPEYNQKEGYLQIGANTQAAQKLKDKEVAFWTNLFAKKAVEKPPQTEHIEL

hCES2A = molecular target: T2, hCES2A (Homo sapiens, UniProt O00748); assay: hCES2A inhibition assay (FD hydrolysis in HLM); type: biochemical; settings: for Specificity (hCES1A/hCES2A): ratio of IC50 values in HLM; for inhibition of hCES2A-mediated FD hydrolysis (residual activity screen): HLM, ginsenoside 100 μM, result in words;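 for all read-outs here: HLM at 1 µg/mL in 0.1 M PBS pH 7.4, kinetic read at 37 °C every 30 s over 30 min, triplicate runs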
T2 construct: tissue Bioreclamation IVT lot no; X008067; host or cells: pooled human liver microsomes (50 donors)
T2 sequence (O00748 27-559): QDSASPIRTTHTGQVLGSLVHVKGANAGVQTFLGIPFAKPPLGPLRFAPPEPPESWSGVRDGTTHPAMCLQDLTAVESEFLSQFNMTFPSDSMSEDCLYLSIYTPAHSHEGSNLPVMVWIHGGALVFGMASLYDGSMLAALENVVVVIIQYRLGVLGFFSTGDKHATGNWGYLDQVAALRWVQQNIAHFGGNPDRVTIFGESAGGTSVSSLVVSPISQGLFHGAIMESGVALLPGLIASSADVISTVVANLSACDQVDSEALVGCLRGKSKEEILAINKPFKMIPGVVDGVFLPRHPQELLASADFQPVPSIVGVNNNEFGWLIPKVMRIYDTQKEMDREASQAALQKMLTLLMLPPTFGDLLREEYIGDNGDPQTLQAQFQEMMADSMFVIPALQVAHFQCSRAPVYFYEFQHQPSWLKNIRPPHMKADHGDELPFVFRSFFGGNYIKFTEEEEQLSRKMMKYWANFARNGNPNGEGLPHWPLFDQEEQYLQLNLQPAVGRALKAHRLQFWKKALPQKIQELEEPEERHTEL

[1] = HLM as enzyme source, DME hydrolysis as probe reaction, read-out: IC50 (μM) hCES1A
[2] = HLM as enzyme source, FD hydrolysis as probe reaction, read-out: IC50 (μM) hCES2A

| Compound | IC50 (hCES1A; [1]) [µM] | Specificity (hCES1A/hCES2A) (hCES2A) | IC50 (hCES2A; [2]) [µM] | inhibition of hCES2A-mediated FD hydrolysis (residual activity screen) (hCES2A) | further results |
| --- | --- | --- | --- | --- | --- |
| CC(C)=CC/C=C(/C)C1CC[C@]2(C)C1[C@H](O)CC1[C@@]3(C)CC[C@H](O)C(C)(C)C3[C@@H](O[C@@H]3O[C@H](CO)[C@@H](O)[C@H](O)[C@H]3O[C@@H]3O[C@@H](C)[C@H](O)[C@@H](O)[C@H]3O)C[C@]12C (some centres unmarked) [F4] | > 100 | > 2.22 |  |  |  |
| CC1(C)CC[C@]2(C(=O)O)CC[C@]3(C)C(=CC[C@@H]4[C@@]5(C)CC[C@H](O)C(C)(C)[C@@H]5CC[C@]43C)[C@@H]2C1 [oleanic acid, reference compound] | 0.1 |  |  |  |  |
| CC(C)=CCC[C@](C)(O[C@@H]1O[C@H](CO)[C@@H](O)[C@H](O)[C@H]1O)[C@H]1CC[C@]2(C)[C@@H]1[C@H](O)C[C@@H]1[C@@]3(C)CC[C@H](O)C(C)(C)[C@@H]3[C@@H](O[C@@H]3O[C@H](CO)[C@@H](O)[C@H](O)[C@H]3O)C[C@]12C [Rg1, ginsenoside Rg1] | > 100 |  | > 100 | hardly inhibit | inhibition of hCES1A-mediated DME hydrolysis (residual activity screen) (hCES1A): hardly inhibit |
| CC1(C)CCC2(C(=O)OC3OC(CO)C(O)C(O)C3O)CCC3(C)C(=CCC4C5(C)CCC(OC6OC(C(=O)O)C(O)C(O)C6OC6OC(CO)C(O)C(O)C6O)C(C)(C)C5CCC43C)C2C1 (centres unmarked) [Ro] | > 100 |  | > 100 |  |  |
| CC(C)=CCC[C@](C)(O)[C@H]1CC[C@]2(C)[C@@H]1[C@H](O)C[C@@H]1[C@@]3(C)CC[C@H](O)C(C)(C)[C@@H]3[C@@H](O[C@@H]3O[C@H](CO)[C@@H](O)[C@H](O)[C@H]3O)C[C@]12C [Rh1, ginsenoside Rh1] |  |  |  |  | IC50 (hCES1A): > 100 µM; IC50 (hCES2A): > 100 µM |
| CC(C)=CCC[C@](C)(O)C1CC[C@]2(C)C1[C@H](O)CC1[C@@]3(C)CC[C@H](O[C@@H]4O[C@H](CO)[C@@H](O)[C@H](O)[C@H]4O[C@@H]4O[C@H](CO)[C@@H](O)[C@H](O)[C@H]4O)C(C)(C)C3CC[C@]12C (some centres unmarked) [Rg3] | > 100 | > 9.64 |  |  |  |
| CC(C)=CCC[C@](C)(O[C@@H]1O[C@H](CO)[C@@H](O)[C@H](O)[C@H]1O)[C@H]1CC[C@]2(C)[C@@H]1[C@H](O)C[C@@H]1[C@@]3(C)CC[C@H](O)C(C)(C)[C@@H]3[C@@H](O)C[C@]12C [F1, ginsenoside F1] | > 100 | > 2.70 |  |  |  |
| CC(C)=CCC[C@](C)(O)[C@H]1CC[C@]2(C)[C@@H]1[C@H](O)C[C@@H]1[C@@]3(C)CC[C@H](O)C(C)(C)[C@@H]3[C@@H](O[C@@H]3O[C@H](CO)[C@@H](O)[C@H](O)[C@H]3O[C@@H]3O[C@@H](C)[C@H](O)[C@@H](O)[C@H]3O)C[C@]12C [Rg2, ginsenoside Rg2] | > 100 |  | > 100 | hardly inhibit | inhibition of hCES1A-mediated DME hydrolysis (residual activity screen) (hCES1A): hardly inhibit |
| CC(C)=CCC[C@](C)(O[C@@H]1O[C@H](CO)[C@@H](O)[C@H](O)[C@H]1O)C1CC[C@]2(C)C1[C@H](O)CC1[C@@]3(C)CC[C@H](O)C(C)(C)C3[C@@H](O[C@@H]3O[C@H](CO)[C@@H](O)[C@H](O)[C@H]3O[C@@H]3OC[C@@H](O)[C@H](O)[C@H]3O)C[C@]12C (some centres unmarked) [R1, ginsenoside R1] | > 100 |  | > 100 |  |  |
| CC(C)=CCC[C@](C)(O[C@@H]1O[C@H](CO[C@@H]2O[C@@H](CO)[C@H](O)[C@H]2O)[C@@H](O)[C@H](O)[C@H]1O)[C@H]1CC[C@]2(C)[C@@H]1[C@H](O)C[C@@H]1[C@@]3(C)CC[C@H](O[C@@H]4O[C@H](CO)[C@@H](O)[C@H](O)[C@H]4O[C@@H]4O[C@H](CO)[C@@H](O)[C@H](O)[C@H]4O)C(C)(C)[C@@H]3CC[C@]12C [Rc] | > 100 | >1.22 |  |  |  |
| CC(C)=CCC[C@](C)(O[C@@H]1O[C@H](CO)[C@@H](O)[C@H](O)[C@H]1O)[C@H]1CC[C@]2(C)[C@@H]1[C@H](O)C[C@@H]1[C@@]3(C)CC[C@H](O[C@@H]4O[C@H](CO)[C@@H](O)[C@H](O)[C@H]4O)C(C)(C)[C@@H]3CC[C@]12C [F2] | > 100 |  |  |  |  |
| CC(C)=CCC[C@](C)(O[C@@H]1O[C@H](CO[C@@H]2OC[C@H](O)[C@H](O)[C@H]2O)[C@@H](O)[C@H](O)[C@H]1O)[C@H]1CC[C@]2(C)[C@@H]1[C@H](O)C[C@@H]1[C@@]3(C)CC[C@H](O[C@@H]4O[C@H](CO)[C@@H](O)[C@H](O)[C@H]4O[C@@H]4O[C@H](CO)[C@@H](O)[C@H](O)[C@H]4O)C(C)(C)[C@@H]3CC[C@]12C [Rb2] | > 100 |  | > 100 | hardly inhibit | inhibition of hCES1A-mediated DME hydrolysis (residual activity screen) (hCES1A): hardly inhibit |
| CC(C)=CCC[C@](C)(O)[C@H]1CC[C@]2(C)[C@@H]1[C@H](O)C[C@@H]1[C@@]3(C)CC[C@H](O[C@@H]4O[C@H](CO)[C@@H](O)[C@H](O)[C@H]4O)C(C)(C)[C@@H]3CC[C@]12C [Rh2] |  | > 18.86 |  |  | IC50 (hCES1A): > 100 µM |
| CC(C)=CCC[C@](C)(O[C@@H]1O[C@H](CO)[C@@H](O)[C@H](O)[C@H]1O)[C@H]1CC[C@]2(C)[C@@H]1[C@H](O)C[C@@H]1[C@@]3(C)CC[C@H](O)C(C)(C)[C@@H]3[C@@H](O[C@@H]3O[C@H](CO)[C@@H](O)[C@H](O)[C@H]3O[C@@H]3O[C@@H](C)[C@H](O)[C@@H](O)[C@H]3O)C[C@]12C [Re, ginsenoside Re] | > 100 |  | > 100 | hardly inhibit | inhibition of hCES1A-mediated DME hydrolysis (residual activity screen) (hCES1A): hardly inhibit |
| CC(C)=CCC[C@](C)(O[C@@H]1O[C@H](CO[C@@H]2OC[C@@H](O)[C@H](O)[C@H]2O)[C@@H](O)[C@H](O)[C@H]1O)[C@H]1CC[C@]2(C)[C@@H]1[C@H](O)C[C@@H]1[C@@]3(C)CC[C@H](O[C@@H]4O[C@H](CO)[C@@H](O)[C@H](O)[C@H]4O[C@@H]4O[C@H](CO)[C@@H](O)[C@H](O)[C@H]4O)C(C)(C)[C@@H]3CC[C@]12C [Rb3] | > 100 |  | > 100 | hardly inhibit | inhibition of hCES1A-mediated DME hydrolysis (residual activity screen) (hCES1A): hardly inhibit |
| CC(C)=CCC[C@](C)(O[C@@H]1O[C@H](CO)[C@@H](O)[C@H](O)[C@H]1O)[C@H]1CC[C@]2(C)[C@@H]1[C@H](O)C[C@@H]1[C@@]3(C)CC[C@H](O)C(C)(C)[C@@H]3CC[C@]12C [C-K, ginsenoside C-K] | > 100 |  |  |  |  |
| CC(C)=CCC[C@](C)(O[C@@H]1O[C@H](CO)[C@@H](O)[C@H](O)[C@H]1O)[C@H]1CC[C@]2(C)[C@@H]1[C@H](O)C[C@@H]1[C@@]3(C)CC[C@H](O[C@@H]4O[C@H](CO)[C@@H](O)[C@H](O)[C@H]4O[C@@H]4O[C@H](CO)[C@@H](O)[C@H](O)[C@H]4O)C(C)(C)[C@@H]3CC[C@]12C [Rd] | > 100 | > 7.12 |  |  |  |
| CC(C)=CCC[C@](C)(O[C@@H]1O[C@H](CO[C@@H]2O[C@H](CO)[C@@H](O)[C@H](O)[C@H]2O)[C@@H](O)[C@H](O)[C@H]1O)[C@H]1CC[C@]2(C)[C@@H]1[C@H](O)C[C@@H]1[C@@]3(C)CC[C@H](O[C@@H]4O[C@H](CO)[C@@H](O)[C@H](O)[C@H]4O[C@@H]4O[C@H](CO)[C@@H](O)[C@H](O)[C@H]4O)C(C)(C)[C@@H]3CC[C@]12C [Rb1] | > 100 |  | > 100 | hardly inhibit | inhibition of hCES1A-mediated DME hydrolysis (residual activity screen) (hCES1A): hardly inhibit |
| CC(C)=CC/C=C(\C)[C@H]1CC[C@]2(C)[C@@H]1[C@H](O)C[C@@H]1[C@@]3(C)CC[C@H](O)C(C)(C)[C@@H]3[C@@H](O[C@@H]3O[C@H](CO)[C@@H](O)[C@H](O)[C@H]3O)C[C@]12C [Rh4] | > 100 |  |  |  |  |
| CC1(C)CCC[C@](C)([C@H]2CC[C@]3(C)[C@@H]2[C@H](O)C[C@@H]2[C@@]4(C)CC[C@H](O)C(C)(C)[C@@H]4[C@@H](O)C[C@]23C)O1 [Panaxatriol, panaxatriol] | 34.9 ± 6.16 |  |  |  |  |
| CC1(C)CCC[C@](C)([C@H]2CC[C@]3(C)[C@@H]2[C@H](O)C[C@@H]2[C@@]4(C)CC[C@H](O)C(C)(C)[C@@H]4CC[C@]23C)O1 [Panaxadiol, panaxadiol] | 6.95 ± 1.29 | 1.84 |  | strong or moderate inhibition |  |
